Measured values reported in publication PMC11076327, “CXCR2 antagonist navarixin in combination with pembrolizumab in select advanced solid tumors: a phase 2 randomized trial” (Investigational New Drugs, 2024).

Legend:
[1] = Navarixin pharmacokinetics in combination with pembrolizumab; format: in vivo, human; conditions: for tlast: median (range); for AUC(0-inf) / AUC(0-t) / Cmax: human, plasma, oral, geometric mean (% geometric CV); for Geometric mean trough concentration: all tumor types combined
Text: Primary endpoints were objective response rate (ORR; proportion of patients with confirmed complete or partial response) by RECIST v1.1 as assessed by the investigator and safety based on the occurrence of dose-limiting toxicities (DLTs), adverse events (AEs), and treatment discontinuations because of AEs. Secondary endpoints included investigator-assessed ORR by immune-related RECIST (iRECIST), investigator-assessed progression-free survival (PFS; time from first dose of study drug until the first documented disease progression or death from any cause) by RECIST v1.1 and iRECIST, overall survival (OS; time from first dose of study drug until death from any cause), pharmacodynamics (assessed via changes in ANC), and PK of navarixin when administered in combination with pembrolizumab.
Blood samples for assessment of ANC were collected predose on day 1 of every cycle; between 6 and 12 hours after dosing on days 1, 3, and 8 of cycle 1; and between 6 and 12 hours after dosing on day 1 of cycle 2. Blood samples for assessment of navarixin pharmacokinetic parameters were collected predose and at 1, 2, 4, 6, and between 8 and 12 hours after dosing on day 1 of cycle 1; predose and between 6 and 12 hours after dosing on days 3 and 8 of cycle 1; predose and at 1, 2, 4, 6, and between 8 and 12 hours after dosing on day 1 of cycle 2; and predose during cycles 3 and 4. […]

[2] = system: absolute neutrophil count (ANC) and sputum neutrophil count; design: method as in PMID 25695403, PMID 22702508; conditions: patients with chronic obstructive pulmonary disease and asthma; ref [10], [11]; cited from earlier work
[3] = system: metastatic castration-resistant prostate cancer (CRPC) preclinical models; design: method as in PMID 31801883; conditions: ref [6]; cited from earlier work
CRC = CRC in vivo; ref [13], [14]; cited from earlier work
melanoma = melanoma in vivo; ref [13], [14]; cited from earlier work
[4] = system: triple-negative breast cancer cells; design: method as in PMID 30396947, PMID 29749433; conditions: ref [15], [16]; cited from earlier work
[5] = system: pancreatic ductal adenocarcinoma cells; design: method as in PMID 30396947, PMID 29749433; conditions: ref [15], [16]; cited from earlier work
liver metastases = system: liver metastases; design: method as in PMID 21035946; conditions: liver metastases in vivo; ref [17]; cited from earlier work
[6] = system: metastatic triple-negative breast cancer; design: method as in PMID 34476645; conditions: in combination with paclitaxel; ref [35]; cited from earlier work
[7] = system: treatment-refractory metastatic CRPC; design: method as in PMID 31774688; conditions: pembrolizumab monotherapy, 9/199, ref [22]; cited from earlier work
[8] = system: mismatch repair–proficient CRC; design: method as in PMID 26028255; conditions: 18 patients with mismatch repair–proficient CRC; ref [21]; cited from earlier work
[9] = system: previously treated advanced NSCLC; design: method as in PMID 31154919; conditions: pembrolizumab monotherapy; previously treated advanced NSCLC cohort; 103/449; ref [24]; cited from earlier work
[10] = CRPC, navarixin 30 mg + pembrolizumab 200 mg, Cycle 1 day 1, n=20
[11] = CRPC, navarixin 30 mg + pembrolizumab 200 mg, Cycle 2 day 1 (steady state), n=18
[12] = CRPC, navarixin 100 mg + pembrolizumab 200 mg, Cycle 1 day 1, n=20
[13] = CRPC, navarixin 100 mg + pembrolizumab 200 mg, Cycle 2 day 1 (steady state), n=17
[14] = MSS CRC, navarixin 30 mg + pembrolizumab 200 mg, Cycle 1 day 1, n=19
[15] = MSS CRC, navarixin 30 mg + pembrolizumab 200 mg, Cycle 2 day 1 (steady state), n=15
[16] = MSS CRC, navarixin 100 mg + pembrolizumab 200 mg, Cycle 1 day 1, n=21
[17] = MSS CRC, navarixin 100 mg + pembrolizumab 200 mg, Cycle 2 day 1 (steady state), n=18
[18] = NSCLC, navarixin 30 mg + pembrolizumab 200 mg, Cycle 1 day 1, n=12
[19] = NSCLC, navarixin 30 mg + pembrolizumab 200 mg, Cycle 2 day 1 (steady state), n=12
[20] = NSCLC, navarixin 100 mg + pembrolizumab 200 mg, Cycle 1 day 1, n=13
[21] = NSCLC, navarixin 100 mg + pembrolizumab 200 mg, Cycle 2 day 1 (steady state), n=11

## CC[C@@H](Nc1c(Nc2cccc(C(=O)N(C)C)c2O)c(=O)c1=O)c1ccc(C)o1 [Navarixin]
[1]; [10]
  tlast: 8.00 (7.83–10.00) h
  AUC(0-t): 363 ng·h/mL
[1]; [11]
  tlast: 8.01 (6.50–8.70) h
  AUC(0-inf): 534 ng·h/mL
  AUC(0-t): 457 ng·h/mL
  Cmax: 191 ng/mL
[1]; [12]
  tlast: 8.00 (7.37–8.08) h
  AUC(0-t): 853 ng·h/mL
[1]; [13]
  tlast: 8.00 (5.93–8.17) h
  AUC(0-t): 925 ng·h/mL
  Cmax: 272 ng/mL
[1]; [14]
  tlast: 8.0 (7.27–8.33) h
  AUC(0-t): 464 ng·h/mL
  Cmax: 162 ng/mL
[1]; [15]
  tlast: 7.93 (6.00–8.17) h
  AUC(0-t): 443 ng·h/mL
  Cmax: 147 ng/mL
[1]; [16]
  tlast: 8.00 (7.12–10.02) h
  AUC(0-t): 1070 ng·h/mL
  Cmax: 354 ng/mL
[1]; [17]
  tlast: 8.00 (7.87–8.13) h
  AUC(0-t): 928 ng·h/mL
  Cmax: 276 ng/mL
[1]; [18]
  tlast: 8.00 (7.83–8.25) h
  AUC(0-t): 427 ng·h/mL
  Cmax: 181 ng/mL
[1]; [19]
  tlast: 8.00 (7.80–8.08) h
  AUC(0-t): 451 ng·h/mL
  Cmax: 179 ng/mL
[1]; [20]
  tlast: 8.00 (6.00–8.07) h
  AUC(0-t): 1140 ng·h/mL
  Cmax: 324 ng/mL
[1]; [21]
  tlast: 8.00 (6.03–8.08) h
  AUC(0-t): 1080 ng·h/mL
  Cmax: 338 ng/mL
[1]; across all tumor types
  AUC0-∞, navarixin 100 mg versus navarixin 30 mg: approximately 2.5 fold
[1]; CRPC, navarixin 30 mg + pembrolizumab 200 mg, Cycle 1 day 1, n=19
  AUC(0-inf): 376 ng·h/mL
[1]; CRPC, navarixin 100 mg + pembrolizumab 200 mg, Cycle 1 day 1, n=18
  AUC(0-inf): 954 ng·h/mL
[1]; CRPC, navarixin 100 mg + pembrolizumab 200 mg, Cycle 2 day 1 (steady state), n=11
  AUC(0-inf): 1340 ng·h/mL
[1]; MSS CRC, navarixin 30 mg + pembrolizumab 200 mg, Cycle 1 day 1, n=17
  AUC(0-inf): 482 ng·h/mL
[1]; MSS CRC, navarixin 30 mg + pembrolizumab 200 mg, Cycle 2 day 1 (steady state), n=10
  AUC(0-inf): 584 ng·h/mL
[1]; MSS CRC, navarixin 100 mg + pembrolizumab 200 mg, Cycle 1 day 1, n=16
  AUC(0-inf): 1120 ng·h/mL
[1]; MSS CRC, navarixin 100 mg + pembrolizumab 200 mg, Cycle 2 day 1 (steady state), n=9
  AUC(0-inf): 954 ng·h/mL
[1]; NSCLC, navarixin 30 mg + pembrolizumab 200 mg, Cycle 1 day 1, n=10
  AUC(0-inf): 469 ng·h/mL
[1]; NSCLC, navarixin 30 mg + pembrolizumab 200 mg, Cycle 2 day 1 (steady state), n=10
  AUC(0-inf): 450 ng·h/mL
[1]; NSCLC, navarixin 100 mg + pembrolizumab 200 mg, Cycle 1 day 1, n=9
  AUC(0-inf): 1230 ng·h/mL
[1]; NSCLC, navarixin 100 mg + pembrolizumab 200 mg, Cycle 2 day 1 (steady state), n=7
  AUC(0-inf): 1360 ng·h/mL
[1]; male, CRPC, navarixin 30 mg + pembrolizumab 200 mg, Cycle 1 day 1, n=20
  Cmax: 156 ng/mL
[1]; male, CRPC, navarixin 100 mg + pembrolizumab 200 mg, Cycle 1 day 1, n=20
  Cmax: 298 ng/mL
[1]; navarixin 30 mg, steady state
  Geometric mean trough concentration: 7.71 ng/mL
[1]; navarixin 100 mg, steady state
  Geometric mean trough concentration: 14.5 ng/mL
[1]; steady state
  Steady-state exposure, 100-mg dose compared with 30-mg dose: approximately 2.5 fold
[2]
  Effect on neutrophil counts: reductions in absolute neutrophil count (ANC) as well as sputum neutrophil count
[3]
  Effect on neuroendocrine lineage plasticity and enzalutamide resistance: reversed neuroendocrine lineage plasticity and enzalutamide resistance
CRC
  Effect on tumor growth: inhibited tumor growth
melanoma
  Effect on tumor growth: inhibited tumor growth
[4]
  Effect on colony formation: inhibited colony formation
[5]
  Effect on colony formation: inhibited colony formation
Liver metastases
  Effect on apoptosis of malignant cells: induced apoptosis

## CC(C)Cc1ccc([C@@H](C)C(=O)NS(C)(=O)=O)cc1 [reparixin]
[6]
  Benefit of combination therapy compared with paclitaxel alone: no benefit

## pembrolizumab
[7]
  ORR: 5%
[8]
  ORR: 0%
[9]
  ORR: 23%
